Experiment [1] deals with T1, AR (AR-full length) in LNCaP cells (Homo sapiens, UniProt P10275, T878A).
T1 construct: the prostate cancer cell line LNCaP (expressing AR-full length); endogenous in cells; host or cells: LNCaP
Kind of experiment: LNCaP Androgen Receptor Imaging Assay (immunofluorescence of endogenous nuclear AR). The class given is cell-based. As to conditions: 24 h incubation; for DC50: concentration giving 50% of maximum degradation of AR per curve fit, single experiment or average of two or more; for Dmax: LNCaP; for Dmax / LNCaP AR Degradation Dmax: maximum degradation observed, normalized as % of positive control (prior art AR PROTAC at 3 μM). In a few lines:
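Endogenous nuclear AR level was imaged by immunofluorescence after 24 h compound exposure (12-point dose response, 0.3% DMSO, 37° C./5% CO2) in LNCaP cells. Data were expressed as % of a 3 μM prior-art AR PROTAC control and fitted (bell fit where a hook appeared) to give DC50 and maximum degradation Dmax.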

The target in experiment [2] is T2, AR (L702H) in LNCaP cells (Homo sapiens, UniProt P10275, L702H/T878A).
T2 construct: engineered to introduce the mutation L702H into the AR gene using CRISPR/Cas9; endogenous in cells; host or cells: LNCaP cells edited by CRISPR/Cas9 at the AR gene
Kind of experiment: LNCaP Androgen Receptor L702H Imaging Assay (LNCaP cells engineered by CRISPR/Cas9). The class given is cell-based. As to conditions: LNCaP cells with AR L702H mutation, 24 h incubation; for DC50: concentration giving 50% of maximum degradation of AR (L702H) per curve fit; for Dmax: LNCaP. The method, boiled down: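 AR (L702H) degradation, expressed as DC50 and Dmax from curve fits normalized to a positive degrader control, was measured by high-content imaging of anti-AR immunofluorescence. The engineered LNCaP line was dosed over 12 concentrations for 24 h, 0.3% DMSO final, before PFA fixation.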

[3] abbreviates: maximum degradation observed, normalized as % of positive control.

T1 sequence (P10275 whole entry T878A): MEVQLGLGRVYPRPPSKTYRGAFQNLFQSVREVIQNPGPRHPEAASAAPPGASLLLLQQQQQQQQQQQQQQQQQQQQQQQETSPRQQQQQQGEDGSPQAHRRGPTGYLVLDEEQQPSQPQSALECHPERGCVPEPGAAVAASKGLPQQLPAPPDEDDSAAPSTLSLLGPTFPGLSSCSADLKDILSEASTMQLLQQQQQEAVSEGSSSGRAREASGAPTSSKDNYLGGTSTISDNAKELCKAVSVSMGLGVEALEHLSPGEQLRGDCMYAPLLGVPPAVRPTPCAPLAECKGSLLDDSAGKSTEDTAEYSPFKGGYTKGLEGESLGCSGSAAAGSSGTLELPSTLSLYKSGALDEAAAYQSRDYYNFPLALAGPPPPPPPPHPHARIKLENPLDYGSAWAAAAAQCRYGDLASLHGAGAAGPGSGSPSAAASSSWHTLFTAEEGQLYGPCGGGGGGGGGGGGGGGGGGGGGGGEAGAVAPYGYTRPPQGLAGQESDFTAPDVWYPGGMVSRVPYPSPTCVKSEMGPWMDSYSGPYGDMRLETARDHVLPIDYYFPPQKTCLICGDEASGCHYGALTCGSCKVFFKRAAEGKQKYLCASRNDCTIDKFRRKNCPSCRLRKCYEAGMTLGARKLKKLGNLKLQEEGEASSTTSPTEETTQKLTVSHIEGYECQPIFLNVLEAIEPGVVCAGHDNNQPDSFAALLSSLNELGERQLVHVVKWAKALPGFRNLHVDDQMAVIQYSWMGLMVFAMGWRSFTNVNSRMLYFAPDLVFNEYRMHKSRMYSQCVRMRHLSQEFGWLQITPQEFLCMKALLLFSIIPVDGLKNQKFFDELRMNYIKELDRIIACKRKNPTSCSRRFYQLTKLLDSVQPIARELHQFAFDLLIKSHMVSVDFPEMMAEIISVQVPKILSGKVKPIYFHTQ
T1 sequence (Q96SW2 whole entry partner): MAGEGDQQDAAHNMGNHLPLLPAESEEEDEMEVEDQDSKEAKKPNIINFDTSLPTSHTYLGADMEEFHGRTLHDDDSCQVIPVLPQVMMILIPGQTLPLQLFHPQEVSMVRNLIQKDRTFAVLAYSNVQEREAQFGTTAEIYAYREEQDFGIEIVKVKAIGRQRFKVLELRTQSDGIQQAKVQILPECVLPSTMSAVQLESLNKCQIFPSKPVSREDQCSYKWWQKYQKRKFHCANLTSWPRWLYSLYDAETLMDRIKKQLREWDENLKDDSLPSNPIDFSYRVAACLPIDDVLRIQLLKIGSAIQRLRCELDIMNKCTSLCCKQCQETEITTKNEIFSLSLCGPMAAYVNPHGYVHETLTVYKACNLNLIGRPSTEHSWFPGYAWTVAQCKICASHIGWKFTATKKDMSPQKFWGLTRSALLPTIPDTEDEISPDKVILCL
T2 sequence (P10275 whole entry L702H/T878A): as the sequence (P10275 whole entry T878A) above, with L702H counted along it
T2 sequence (Q96SW2 whole entry partner): as the sequence (Q96SW2 whole entry partner) above

For the compound `COc1nc(N2CCN(CC3CCN(c4ccc(C5CCN(c6ccc(F)c7c(C#N)n[nH]c67)CC5)cc4)CC3)CC2)cc2c1C(=O)N(C1CCC(=O)NC1=O)C2` (centres unmarked) [Example 144, 7-(4-{4-[4-({4-[2-(2,6-Dioxopiperidin-3-yl)-4-methoxy-3-oxo-2,3-dihydro-1H-pyrrolo[3,4-c]pyridin-6-yl]piperazin-1-yl}methyl)piperidin-1-yl]phenyl}piperidin-1-yl)-4-fluoro-1H-indazole-3-carbonitrile], the results for the DC50 in experiment [1] and in experiment [2] were 21 nM and 95 nM, respectively. The results for the Dmax in experiment [1] and in experiment [2] (setting [3]) were 97% and 75%, respectively.
On the same counts, the results for `N#Cc1c[nH]c2c(N3CCCC(c4ccc(N5CCC(CN6CCC(n7ccc8c(N9CCC(=O)NC9=O)cccc87)CC6)CC5)nc4)C3)ccc(Cl)c12` (single isomer, unassigned) [Example 115, 4-Chloro-7-[(3S*)-3-{6-[4-({4-[4-(2,4-dioxo-1,3-diazinan-1-yl)-1H-indol-1-yl]piperidin-1-yl}methyl)piperidin-1-yl]pyridin-3-yl}piperidin-1-yl]-1H-indole-3-carbonitrile] are 14 nM, 13 nM, 99% and 102%.
Regarding `Cc1ccc(N2CCC(c3ccc(OCCCCN4CCN(c5ccc6c(c5)CN(C5CCC(=O)NC5=O)C6=O)CC4)cc3)CC2)c2[nH]cc(C#N)c12` (centres unmarked) [Example 28, 7-{4-[4-(4-{4-[2-(2,6-dioxopiperidin-3-yl)-1-oxo-2,3-dihydro-1H-isoindol-5-yl]piperazin-1-yl}butoxy)phenyl]piperidin-1-yl}-4-methyl-1H-indole-3-carbonitrile], the figures for the half-maximal degradation concentration (DC50) in experiment [1] and in experiment [2] were 5 nM and 23 nM, respectively. Further, the Dmax (as a rule, the greatest extent of degradation seen) turned out to be 96% in experiment [1] and 83% in experiment [2] (setting [3]).
Take `N#Cc1c[nH]c2c(N3CCOC(c4ccc(N5CCC(CN6CCC(n7ccc8c(N9CCC(=O)NC9=O)cccc87)CC6)CC5)cc4)C3)ccc(Cl)c12` (single isomer, unassigned) [Example 117, 4-Chloro-7-[(2S*)-2-{4-[4-({4-[4-(2,4-dioxo-1,3-diazinan-1-yl)-1H-indol-1-yl]piperidin-1-yl}methyl)piperidin-1-yl]phenyl}morpholin-4-yl]-1H-indole-3-carbonitrile]: the half-maximal degradation concentration (DC50) – broadly, the midpoint of the concentration-degradation curve – in experiment [1] was 17 nM; in experiment [2] it was 363 nM. Further, the results for the Dmax in experiment [1] and in experiment [2] (setting [3]) were 89% and 84%, respectively.
The like results for `COc1nc(N2CCN(CCCCOc3ccc(C4CCN(c5ccc(Cl)c6c(C#N)c[nH]c56)CC4)cc3)CC2)cc2c1C(=O)N(C1CCC(=O)NC1=O)C2` (centres unmarked) [Example 32, 4-Chloro-7-{4-[4-(4-{4-[2-(2,6-dioxopiperidin-3-yl)-4-methoxy-3-oxo-2,3-dihydro-1H-pyrrolo[3,4-c]pyridin-6-yl]piperazin-1-yl}butoxy)phenyl]piperidin-1-yl}-1H-indole-3-carbonitrile] were, in that order, 5 nM, 10 nM, 99% and 100%.
For the compound `COc1cc(N2CCN(CC3CCN(c4ccc(C5CCN(c6ccc(Cl)c7c(C#N)c[nH]c67)CC5)cc4)CC3)CC2)cc2c1C(=O)N(C1CCC(=O)NC1=O)C2` (single isomer, unassigned) [Example 16, 4-Chloro-7-[4-(4-{4-[(4-{2-[(3R*)-2,6-dioxopiperidin-3-yl]-7-methoxy-1-oxo-2,3-dihydro-1H-isoindol-5-yl}piperazin-1-yl)methyl]piperidin-1-yl}phenyl)piperidin-1-yl]-1H-indole-3-carbonitrile], in experiment [1], the DC50 was 12 nM and the “LNCaP AR Degradation Dmax” value is reported as 77%. Also, in experiment [2], it took 24 nM to reach half-maximal degradation (DC50). For the same compound, the Dmax in experiment [2] (setting [3]) was 84%.
Turning to `N#Cc1c[nH]c2c(N3CCC[C@@H](c4ccc(N5CCC(CN6CCN(c7cc8c(cc7F)C(=O)N(C7CCC(=O)NC7=O)C8=O)CC6)CC5)cc4)C3)ccc(Cl)c12` (stereo partly drawn) [Example 53, 4-Chloro-7-[(3S)-3-{4-[4-({4-[2-(2,6-dioxopiperidin-3-yl)-6-fluoro-1,3-dioxo-2,3-dihydro-1H-isoindol-5-yl]piperazin-1-yl}methyl)piperidin-1-yl]phenyl}piperidin-1-yl]-1H-indole-3-carbonitrile], the half-maximal degradation concentration (DC50) amounted to 30 nM in experiment [1] and 78 nM in experiment [2]. Further, the Dmax in experiment [1] was found to be 99%; in experiment [2] (setting [3]), 103%.
For `N#Cc1c[nH]c2c(N3CCC[C@@H](c4ccc(N5CCC(CN6Cc7cc8c(cc7C6)C(=O)N(C6CCC(=O)NC6=O)C8=O)CC5)cc4)C3)ccc(Cl)c12` (stereo partly drawn) [Example 77, 4-Chloro-7-{(3S)-3-[4-(4-{[6-(2,6-dioxopiperidin-3-yl)-5,7-dioxo-3,5,6,7-tetrahydropyrrolo[3,4-f]isoindol-2(1H)-yl]methyl}piperidin-1-yl)phenyl]piperidin-1-yl}-1H-indole-3-carbonitrile], the DC50 in experiment [1] was 14 nM; in experiment [2], 67 nM. The Dmax in experiment [1] was found to be 79%; in experiment [2] (setting [3]) it was 69%.
Consider `N#Cc1c[nH]c2c(N3CCC(NC(=O)c4ccc(N5CCC(CN6Cc7cc8c(cc7C6)C(=O)N(C6CCC(=O)NC6=O)C8=O)CC5)cc4F)CC3)ccc(Cl)c12` (centres unmarked) [Example 155, N-[1-(4-Chloro-3-cyano-1H-indol-7-yl)piperidin-4-yl]-4-(4-{[6-(2,6-dioxopiperidin-3-yl)-5,7-dioxo-3,5,6,7-tetrahydropyrrolo[3,4-f]isoindol-2(1H)-yl]methyl}piperidin-1-yl)-2-fluorobenzamide], for which the values for the 50% degradation concentration (DC50) in experiment [1] and in experiment [2] were 4 nM and 17 nM, respectively. For the same compound, the results for the Dmax in experiment [1] and in experiment [2] (setting [3]) were 80% and 82%, respectively.
On the same counts, the results for `COc1nc(N2CCN(CC3CCN(c4ccc(C5CCN(c6ccc(Cl)c7c(C#N)c[nH]c67)CC5)cc4)CC3)CC2)cc2c1C(=O)N(C1CCC(=O)NC1=O)C2` (centres unmarked) [Example 34, 4-Chloro-7-(4-{4-[4-({4-[2-(2,6-dioxopiperidin-3-yl)-4-methoxy-3-oxo-2,3-dihydro-1H-pyrrolo[3,4-c]pyridin-6-yl]piperazin-1-yl}methyl)piperidin-1-yl]phenyl}piperidin-1-yl)-1H-indole-3-carbonitrile] are 7 nM, 12 nM, 98% and 102%.
The like results for `N#Cc1n[nH]c2c(N3CCOC(c4ccc(N5CCC(CN6CCC(n7ccc8c(N9CCC(=O)NC9=O)cccc87)CC6)CC5)cc4)C3)ccc(Cl)c12` (single isomer, unassigned) [Example 119, 4-Chloro-7-[(2S*)-2-{4-[4-({4-[4-(2,4-dioxo-1,3-diazinan-1-yl)-1H-indol-1-yl]piperidin-1-yl}methyl)piperidin-1-yl]phenyl}morpholin-4-yl]-1H-indazole-3-carbonitrile] were, in that order, 6 nM, 14 nM, 99% and 103%.
As to `N#Cc1c[nH]c2c(N3CCCC(c4ccc(N5CCC(CN6CCC(n7ccc8c(N9CCC(=O)NC9=O)cccc87)CC6)CC5)nc4)C3)ccc(Cl)c12` (single isomer, unassigned) [Example 116, 4-Chloro-7-[(3R*)-3-{6-[4-({4-[4-(2,4-dioxo-1,3-diazinan-1-yl)-1H-indol-1-yl]piperidin-1-yl}methyl)piperidin-1-yl]pyridin-3-yl}piperidin-1-yl]-1H-indole-3-carbonitrile], in experiment [1], it took 11 nM to reach half-maximal degradation (DC50) and the “LNCaP AR Degradation Dmax” value was determined as 103%. In experiment [2], this compound yielded a DC50 of 23 nM. Further, in experiment [2] (setting [3]), the “LNCaP AR (L702H) Degradation Dmax” value came out at 97%.
`COc1cc(N2CCN(CC3CCN(c4ccc(C5CCN(c6ccc(C)c7c(C#N)n[nH]c67)CC5)cc4)CC3)CC2)cc2c1C(=O)N(C1CCC(=O)NC1=O)C2` (centres unmarked) [Example 149, 7-(4-{4-[4-({4-[2-(2,6-Dioxopiperidin-3-yl)-7-methoxy-1-oxo-2,3-dihydro-1H-isoindol-5-yl]piperazin-1-yl}methyl)piperidin-1-yl]phenyl}piperidin-1-yl)-4-methyl-1H-indazole-3-carbonitrile]: the half-maximal degradation concentration (DC50) turned out to be 20 nM in experiment [1] and 60 nM in experiment [2]. In addition, the figures for the Dmax in experiment [1] and in experiment [2] (setting [3]) were 96% and 91%, respectively.
The like results for `N#Cc1c[nH]c2c(C3CCC(NC(=O)c4ccc(N5CCC(CN6CCC(n7ccc8c(N9CCC(=O)NC9=O)cccc87)CC6)CC5)cc4F)CC3)ccc(Cl)c12` (centres unmarked) [Example 174, N-[4-(4-Chloro-3-cyano-1H-indol-7-yl)cyclohexyl]-4-[4-({4-[4-(2,4-dioxo-1,3-diazinan-1-yl)-1H-indol-1-yl]piperidin-1-yl}methyl)piperidin-1-yl]-2-fluorobenzamide] were, in that order, 3 nM, 13 nM, 106% and 104%.

Source of the values: US20260274832A1, “COMPOUNDS AND THEIR USE IN TREATING CANCER” (ASTRAZENECA AB, priority 2023, published 2026).
